Test results as given in EP0361645B1, “Organic hydrazine derivatives for pharmaceutical use” (ROHM AND HAAS COMPANY, priority 1988, dated 1990).
Like-named read-outs stand apart in the source and are kept apart here.

Target: T1, ecdysone receptor (Drosophila melanogaster, UniProt P34021)
T1 construct: endogenous in cells; host or cells: Drosophila Kr (Kc) cells, undiluted cytosolic extract
T1 sequence (P34021 1-878): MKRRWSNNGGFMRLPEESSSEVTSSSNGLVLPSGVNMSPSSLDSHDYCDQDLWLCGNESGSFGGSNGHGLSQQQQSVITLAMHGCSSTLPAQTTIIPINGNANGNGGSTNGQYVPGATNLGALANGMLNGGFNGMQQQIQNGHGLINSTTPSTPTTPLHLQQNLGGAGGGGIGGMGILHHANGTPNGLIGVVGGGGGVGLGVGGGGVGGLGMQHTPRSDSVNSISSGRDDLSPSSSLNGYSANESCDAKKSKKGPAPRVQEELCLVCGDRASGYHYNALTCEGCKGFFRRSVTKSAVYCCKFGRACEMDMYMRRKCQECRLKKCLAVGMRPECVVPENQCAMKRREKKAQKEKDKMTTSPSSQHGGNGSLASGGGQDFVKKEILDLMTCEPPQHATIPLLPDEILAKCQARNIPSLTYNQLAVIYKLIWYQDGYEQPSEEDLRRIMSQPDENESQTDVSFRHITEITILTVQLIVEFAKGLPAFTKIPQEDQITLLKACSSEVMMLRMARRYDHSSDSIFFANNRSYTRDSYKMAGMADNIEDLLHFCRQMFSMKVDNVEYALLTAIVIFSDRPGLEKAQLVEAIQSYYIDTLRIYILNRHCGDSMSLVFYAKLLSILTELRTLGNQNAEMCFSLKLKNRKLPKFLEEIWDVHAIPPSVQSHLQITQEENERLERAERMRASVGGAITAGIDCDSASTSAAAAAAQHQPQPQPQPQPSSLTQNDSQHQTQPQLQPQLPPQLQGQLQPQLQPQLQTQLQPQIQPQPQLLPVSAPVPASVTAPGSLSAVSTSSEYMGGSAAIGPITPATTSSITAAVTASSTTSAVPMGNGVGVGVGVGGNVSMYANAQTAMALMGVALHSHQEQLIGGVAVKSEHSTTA
T1 sequence (P20153 1-508 partner): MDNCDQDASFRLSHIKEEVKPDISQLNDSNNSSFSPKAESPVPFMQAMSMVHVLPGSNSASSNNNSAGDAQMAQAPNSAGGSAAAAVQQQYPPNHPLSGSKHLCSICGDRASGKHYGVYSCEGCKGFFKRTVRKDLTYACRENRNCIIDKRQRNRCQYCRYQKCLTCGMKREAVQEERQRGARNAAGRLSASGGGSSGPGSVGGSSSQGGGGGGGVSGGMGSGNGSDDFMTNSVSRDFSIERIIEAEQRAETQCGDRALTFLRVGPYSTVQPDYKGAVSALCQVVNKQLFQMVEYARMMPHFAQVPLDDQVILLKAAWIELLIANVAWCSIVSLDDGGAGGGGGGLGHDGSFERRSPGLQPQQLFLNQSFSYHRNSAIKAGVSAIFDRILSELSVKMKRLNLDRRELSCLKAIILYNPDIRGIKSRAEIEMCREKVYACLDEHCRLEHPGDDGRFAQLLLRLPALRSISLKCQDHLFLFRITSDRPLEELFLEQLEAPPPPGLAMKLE
Experiment: ^3H-ponasterone A binding to / displacement from Kr cell cytosolic receptor extracts
Experimental: The invention will now be further described by way of exemplification and by reference to the drawings in which; • Figure 1. Both 20-hydroxyecdysone and Example No. 3 induce process elaboration (A) and inhibition of cell proliferation (B) in Kr cells in a dose-dependent manner. Initial cell density was 2 X 10^6 cells/ml; after incubation of 1 ml aliquots of the cells with the compound for 48 hours the cells were triturated gently and the percentage of cells responding (with processes longer than approximately 17 um, see Cherbas et al. 189 Wilhelm Roux's Arch. 1 (1980)) and total cell density was determined by hemocytom- eter counting, relative to ethanol (1 ul)-treated controls. Determinations were in triplicate for each dose. […] Induction of acetylcholinesterase by varying concentrations of 20-hydroxyecdysone and Example No. 3. Kr cells at an initial density of 3 X 10^6 cells/ml (10 ml per sample) were incubated with the agonist for three days. After harvesting, by centrifugation at 3000 X g, the cell pellets were washed with Robb's Drosophila saline (18, 2 X 5 ml) at 4 ° C, then lysed by sonication in 1 ml of phosphate buffer (pH 7.4, I = 0.1 M) containing 0.5 M NaCI, 0.25 M EDTA and 0.5% TRITON? X-100. See Cherbas, 197 Science 275 (1977). Triton is a registered trademark of Rohm and Haas Company for a alkylaryl polyoxyethylene glycol surfactant. After centrifugation at 16,000 X g, the supernatants were assayed for acetylcholinesterase activity by an adaptation of the method of Ellman et al., 7 Biochem. Pharmacol. 88 (1961), by subtracting out any 412 nm absorbance observed in incubations in the presence of 2 X 10-5 eserine sulfate. Thus reaction mixtures contained 50 ul of enzyme extract, 20 ul eserine (blank tubes only) and 1.0 ml of 0.5 mM acetylthiocholine, 0.3 mM dithiobisnitrobenzoic acid in phosphate buffer (pH 7.4, I = 0.1 M). Incubations were at 25 ° C for two hours; reactions in active tubes were terminated by addition of eserine. Absorbance at 412 nm was then measured. Protein concentration in extracts was measured by the Biorad method. […] Scatchard plot of ^3H-ponasterone A binding to Kr cell cytosolic receptor extracts in the presence of differing concentrations of Example No. 3. Cytosolic extract preparation and ecdysteroid receptor assays were essentially as described in Sage, 111 Meth. in Enzymol. 458 (1985). Example No. 3 was added in 1 ul DMSO to 50 ul of radioligand in 10 mM Tris buffer (pH 7.2) and 50 ul of undiluted cytosol extract. After incubation overnight at 0.5 ° C, bound label was separated from free by addition of 300 ul 1% HCI-washed charcoal (Sigma) and 0.1% Dextran T70 (Pharmacia) in Tris buffer, centrifugation (13,000 X g, 3 min, 4 ° C) and liquid scintillation counting of a 300 ul aliquot of the supernatant in 15 ml Hydrofluor (National Diagnostics). Points are means of duplicate determinations. […] Relative ability of 20 hydroxyecdysone and Example No. 3 to displace ^3H-ponasterone A from cytosolic receptor extracts. Conditions were as in Figure 3 except that only 0.5 nM ponasterone A was used. • Points are means of duplicate determinations. For 20-hydroxyecdysone EC50 = 0.1 uM while for Example No. 3 EC50 = 3.0 uM. Control binding = 10 femtomoles ^3H-ponasterone A bound per mg cytosol protein. • Figure 4. Effects of 10 ppm Example No. 3 administered in artificial diet to newly ecdysed fourth instar (L4) M. sexta, monitoring (A)immunoreactive hemolymph ecdysteroid titers and (B)weight gain. Ecdysteroid titers were measured by a radioimmunoassay adapted from Warren et al., 40 Experientia 393 (1984) with Protein A-Staph. aureus suspension (Sigma) used as the reagent to separate bound from free ligand. The antiecdysone antiserum was formed by reaction of 20-hydroxyecdysone with carboxymethox- yamine resulting in the corresponding ecdysteroid 6-oxime acid. […] All samples were diluted appropriately in borate buffer pH 8.0 and assayed in duplicate. […]

With `CC(C)(O)CC[C@@H](O)[C@](C)(O)[C@H]1CC[C@@]2(O)C3=CC(=O)[C@@H]4C[C@@H](O)[C@@H](O)C[C@]4(C)[C@H]3CC[C@]12C` [20-hydroxyecdysone, reference compound] the IC50 (0.5 nM ponasterone A (Figure 3B legend), read-out: EC50, displacement of ^3H-ponasterone A from cytosolic receptor extracts) was 0.1 µM and the “fold greater apparent affinity than Example No. 3” value (ratio of IC50) was 30 fold.
With `CC(C)(C)N(NC(=O)c1ccccc1)C(=O)c1ccccc1` [Example No. 3, N'-t-butyl-N,N'-dibenzoylhydrazine] the IC50 was 3 µM, the “mode of inhibition of ^3H-ponasterone A binding” value (Kd increases, Bmax remains the same) was “competitive mode of inhibition” and the “fold lower apparent binding affinity than 20-hydroxyecdysone” value (Kr cell extracts) was 30 fold.
